The results in this text go back to US20230066011A1, “PYRROLOPYRIMIDINE DERIVATIVE, AND PHARMACEUTICAL COMPOSITION FOR PREVENTING OR TREATING PROTEIN KINASE-RELATED DISEASE COMPRISING SAME AS ACTIVE INGREDIENT” (VORONOI CO., LTD., priority 2019, published 2023).

pIC50: −log10 of the molar value. Where only a bound is given, the exact number is not on record here.

Common to all, as to format: biochemical
The target in experiment [1] is T1, human GST-CLK1 (Homo sapiens, UniProt P49759).
T1 construct: purified human GST-CLK1 (129-end, SignalChem) enzyme; purchased SignalChem
In words: GST-CLK1 enzyme inhibition, ADP-Glo kinase assay. The following applies: ATP 10 μM, GST-CLK1 129-end. The method in brief:
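Human GST-CLK1 (129-end, 3 ng) reacted with substrate and 10 μM ATP for 1 h at 25° C in 40 mM Tris-HCl pH 7.4, 20 mM MgCl2, 0.5 mg/mL BSA, 50 μM DTT. ADP-Glo luminescence was normalised to solvent control; IC50 (nM) from 3 data sets.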

In experiment [2] the target is LRRK2 (G2019S) (Homo sapiens, UniProt Q5S007, G2019S). As to the kind of experiment: LRRK2 G2019S enzyme inhibition, ADP-Glo kinase assay. The arrangement: purchased SignalChem L10-12GG. Conditions: ATP 25 μM. In a few lines:
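Purified human LRRK2 G2019S (16 ng) with 25 μM ATP and 0.2 μg substrate, 2 h at 25° C. in Tris-HCl pH 7.4, MgCl2, BSA, DTT buffer; compounds at 12 final concentrations, 50 μM down to 0.000001024 μM. ADP-Glo luminescence versus solvent control gave IC50.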

In experiment [3] the target is T2, human GST-DYRK1A (Homo sapiens, UniProt Q13627).
T2 construct: purified human GST-DYRK1A (full length, Thermo Scientifics) enzyme; purchased Thermo Scientifics
In words: GST-DYRK1A enzyme inhibition, ADP-Glo kinase assay. Conditions: ATP 10 μM, GST-DYRK1A full length, read-out: DYRK1 IC50. In a few lines:
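Full-length human GST-DYRK1A (10 ng) with 10 μM ATP and specific substrate in 40 mM Tris-HCl pH 7.4, 20 mM MgCl2, 0.5 mg/mL BSA, 50 μM DTT, 1 h at 25 °C. ADP formation read by ADP-Glo luminescence relative to solvent control; IC50 from three data sets.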

T1 sequence (P49759 129-484 limits assumed): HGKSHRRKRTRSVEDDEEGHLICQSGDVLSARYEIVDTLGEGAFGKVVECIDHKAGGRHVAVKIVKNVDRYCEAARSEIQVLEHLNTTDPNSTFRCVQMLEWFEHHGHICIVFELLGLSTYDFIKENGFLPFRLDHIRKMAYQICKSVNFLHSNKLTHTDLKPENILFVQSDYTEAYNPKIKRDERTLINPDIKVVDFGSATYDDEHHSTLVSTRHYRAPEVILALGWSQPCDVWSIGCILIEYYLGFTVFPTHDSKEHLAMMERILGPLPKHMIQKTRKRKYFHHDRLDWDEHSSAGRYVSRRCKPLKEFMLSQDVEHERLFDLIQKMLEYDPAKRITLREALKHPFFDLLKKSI
Chain of LRRK2 (G2019S) (Q5S007 970-2527 G2019S limits assumed): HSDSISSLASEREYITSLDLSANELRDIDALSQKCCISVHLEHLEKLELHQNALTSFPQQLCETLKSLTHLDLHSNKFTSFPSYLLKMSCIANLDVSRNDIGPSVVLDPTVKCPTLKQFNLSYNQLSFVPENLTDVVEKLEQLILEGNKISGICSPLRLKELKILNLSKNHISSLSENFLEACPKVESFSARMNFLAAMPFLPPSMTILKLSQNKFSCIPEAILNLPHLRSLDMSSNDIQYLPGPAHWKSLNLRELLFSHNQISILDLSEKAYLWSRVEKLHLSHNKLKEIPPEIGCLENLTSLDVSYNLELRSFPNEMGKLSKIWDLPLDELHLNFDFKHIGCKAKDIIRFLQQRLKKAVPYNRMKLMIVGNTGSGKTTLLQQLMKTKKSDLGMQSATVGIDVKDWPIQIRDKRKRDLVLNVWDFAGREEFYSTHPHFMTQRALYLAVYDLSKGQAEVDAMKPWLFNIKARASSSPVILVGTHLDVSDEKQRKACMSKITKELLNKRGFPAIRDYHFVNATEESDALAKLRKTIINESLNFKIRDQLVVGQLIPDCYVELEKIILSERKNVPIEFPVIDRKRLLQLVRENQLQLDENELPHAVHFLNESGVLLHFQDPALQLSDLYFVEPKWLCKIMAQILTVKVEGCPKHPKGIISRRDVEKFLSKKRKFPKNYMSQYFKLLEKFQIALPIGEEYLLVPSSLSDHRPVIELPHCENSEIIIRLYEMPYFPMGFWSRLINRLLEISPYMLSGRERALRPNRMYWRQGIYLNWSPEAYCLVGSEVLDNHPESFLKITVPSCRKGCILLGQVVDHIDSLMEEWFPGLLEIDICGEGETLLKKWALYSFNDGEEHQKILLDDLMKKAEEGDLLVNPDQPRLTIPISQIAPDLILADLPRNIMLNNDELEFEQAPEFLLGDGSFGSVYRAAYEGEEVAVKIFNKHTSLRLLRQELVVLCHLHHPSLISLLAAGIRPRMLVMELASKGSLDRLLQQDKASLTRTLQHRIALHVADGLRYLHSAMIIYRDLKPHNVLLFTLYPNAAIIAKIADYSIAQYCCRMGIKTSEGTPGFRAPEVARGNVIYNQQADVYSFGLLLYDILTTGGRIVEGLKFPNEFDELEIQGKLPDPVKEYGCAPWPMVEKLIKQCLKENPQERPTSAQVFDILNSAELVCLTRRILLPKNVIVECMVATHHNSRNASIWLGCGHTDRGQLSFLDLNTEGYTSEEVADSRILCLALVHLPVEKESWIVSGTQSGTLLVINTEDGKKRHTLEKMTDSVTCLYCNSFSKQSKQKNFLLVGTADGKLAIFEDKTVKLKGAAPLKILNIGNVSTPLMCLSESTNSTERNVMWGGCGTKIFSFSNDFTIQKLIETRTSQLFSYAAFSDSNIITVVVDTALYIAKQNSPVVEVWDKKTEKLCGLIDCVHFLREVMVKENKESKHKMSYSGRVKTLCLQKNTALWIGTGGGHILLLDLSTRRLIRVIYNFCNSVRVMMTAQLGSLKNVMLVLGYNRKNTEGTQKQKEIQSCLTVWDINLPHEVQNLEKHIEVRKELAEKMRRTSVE

`COc1cc(S(C)(=O)=O)ccc1Nc1nc(NC2CCCCC2)c2cc[nH]c2n1` [Example 27, N^4-cyclohexyl-N^2-(2-methoxy-4-(methylsulfonyl)phenyl)-7H-pyrrolo[2,3-d]pyrimidine-2,4-diamine 2,2,2-trifluoroacetate]: the pIC50 was 6.00 to 6.52 in experiment [1], greater than 7.00 in experiment [2] and 6.00 to 6.52 in experiment [3].

For `CC(C)CNc1nc(Nc2ccc(C(=O)N3CCOCC3)c3c2OCCO3)nc2[nH]cc(C#N)c12` [Example 121, 4-(isobutylamino)-2-((8-(morpholine-4-carbonyl)-2,3-dihydrobenzo[b][1,4]dioxin-5-yl)amino)-7H-pyrrolo[2,3-d]pyrimidine-5-carbonitrile], the negative-log IC50 (pIC50) in experiment [1] is 6.52 to 7.00; in experiment [2] it was greater than 7.00; in experiment [3], 6.00 to 6.52.

On to `COc1cc(S(=O)(=O)N2CCOCC2)ccc1Nc1nc(NC2CCOCC2)c2c(C#N)c[nH]c2n1` [Example 76, 2-((2-methoxy-4-(morpholinosulfonyl)phenyl)amino)-4-((tetrahydro-2H-pyran-4-yl)amino)-7H-pyrrolo[2,3-d]pyrimidine-5-carbonitrile], for which the figures for the pIC50 in experiment [1], in experiment [2] and in experiment [3] were 6.00 to 6.52, greater than 7.00 and 6.00 to 6.52, respectively.

Take `CNc1nc(Nc2ccc(S(=O)(=O)N3CCOCC3)cc2OC)nc2[nH]ccc12` [Example 2, N^2-(2-methoxy-4-(morpholinosulfonyl)phenyl)-N^4-methyl-7H-pyrrolo[2,3-d]pyrimidine-2,4-diamine 2,2,2-trifluoroacetate]: the negative logarithm of the IC50 (pIC50) in experiment [1] was 6.00 to 6.52; in experiment [2], greater than 7.00; in experiment [3], 6.00 to 6.52.

With `CNc1nc(Nc2ccc(S(C)(=O)=O)cc2OC)nc2[nH]ccc12` [Example 4, N^2-(2-methoxy-4-(methylsulfonyl)phenyl)-N^4-methyl-7H-pyrrolo[2,3-d]pyrimidine-2,4-diamine 2,2,2-trifluoroacetate], the pIC50 in experiment [1] is 6.00 to 6.52; in experiment [2], greater than 7.00; in experiment [3], 6.00 to 6.52.

As for `CC[C@H](C)Nc1nc(Nc2ccc(P(C)(C)=O)cc2OC)nc2[nH]cc(C(F)(F)F)c12` [Example 385, (S)-(4-((4-(sec-butylamino)-5-(trifluoromethyl)-7H-pyrrolo[2,3-d]pyrimidin-2-yl)amino)-3-methoxyphenyl) dimethyl-phosphine oxide], the pIC50 was 6.00 to 6.52 in experiment [1], greater than 7.00 in experiment [2] and 6.00 to 6.52 in experiment [3].

Take `CC[C@H](C)Nc1nc(Nc2ccc(C(=O)N3CCOCC3)c3c2OCCO3)nc2[nH]cc(C(F)(F)F)c12` [Example 381, (S)-(8-((4-(sec-butylamino)-5-(trifluoromethyl)-7H-pyrrolo[2,3-d]pyrimidin-2-yl)amino)-2,3-dihydrobenzo[b] [1,4]dioxin-5-yl)(morpholino) methanone]: the pIC50 in experiment [1] was 6.00 to 6.52; in experiment [2], greater than 7.00; in experiment [3] it was 6.00 to 6.52.

As to `COc1cc(S(=O)(=O)N2CCOCC2)ccc1Nc1nc(NC(C)C)c2cc[nH]c2n1` [Example 13, N^4-isopropyl-N^2-(2-methoxy-4-(morpholinosulfonyl)phenyl)-7H-pyrrolo[2,3-d]pyrimidine-2,4-diamine 2,2,2-trifluoroacetate], the pIC50 in experiment [1] was 6.00 to 6.52; in experiment [2] it was greater than 7.00; in experiment [3], 6.00 to 6.52.

As to `CNc1nc(Nc2ccc(P3(=O)CCN(C4CC4)CC3)cc2OC)nc2[nH]cc(C(F)(F)F)c12` [Example 216, 1-cyclopropyl-4-(3-methoxy-4-((4-(methylamino)-5-(trifluoromethyl)-7H-pyrrolo[2,3-d]pyrimidin-2-y)amino)phenyl)-1,4-azaphosphinane 4-oxide], the figures for the negative-log IC50 (pIC50) in experiment [1], in experiment [2] and in experiment [3] were 6.52 to 7.00, greater than 7.00 and 6.52 to 7.00, respectively.

`O=C(c1ccc(Nc2nc(NC3CCCC3)c3cc[nH]c3n2)c2c1OCCO2)N1CCOCC1` [Example 48, (8-((4-(cyclopentylamino)-7H-pyrrolo[2,3-d]pyrimidin-2-yl)amino)-2,3-dihydrobenzo[b][1,4]dioxin-5-yl)(morpholino)methanone]: the pIC50 in experiment [1] is 6.00 to 6.52; in experiment [2] it was greater than 7.00; in experiment [3], 6.00 to 6.52.

As to `N#Cc1c[nH]c2nc(Nc3ccc(C(=O)N4CC(CO)(CO)C4)c4c3OCCO4)nc(NC3CC3)c12` [Example 332, 2-((8-(3,3-bis (hydroxymethyl)azetidine-1-carbonyl)-2,3-dihydrobenzo[b] [1,4]dioxin-5-yl)amino)-4-(cyclopropyl-amino)-7H-pyrrolo[2,3-d]pyrimidine-5-carbonitrile], the pIC50 in experiment [1] is greater than 7.00; in experiment [2], 6.52 to 7.00; in experiment [3], 6.00 to 6.52.

Take `COc1cc(S(=O)(=O)N2CCC(N3CCOCC3)CC2)ccc1Nc1nc(NC2CC2)c2cc[nH]c2n1` [Example 54, N^4-cyclopropyl-N^2-(2-methoxy-4-((4-morpholinopiperidin-1-yl)sulfonyl)phenyl)-7H-pyrrolo[2,3-d]pyrimidine-2,4-diamine]: the pIC50 in experiment [1] was 6.00 to 6.52; in experiment [2] it was greater than 7.00; in experiment [3] it was 6.00 to 6.52.

Regarding `COc1cc(S(=O)(=O)N2CCOCC2)ccc1Nc1nc(NC2CCCCC2)c2cc[nH]c2n1` [Example 26, N^4-cyclohexyl-N^2-(2-methoxy-4-(morpholinosulfonyl)phenyl)-7H-pyrrolo[2,3-d]pyrimidine-2,4-diamine 2,2,2-trifluoroacetate], the figures for the pIC50 in experiment [1], in experiment [2] and in experiment [3] were 6.00 to 6.52, greater than 7.00 and 6.00 to 6.52, respectively.

Turning to `CC(C)Nc1nc(Nc2ccc(C(=O)N3CCOCC3)c3c2OCC3)nc2[nH]cc(C(F)(F)F)c12` [Example 449, (7-((4-(isopropylamino)-5-(trifluoromethyl)-7H-pyrrolo[2,3-d]pyrimidin-2-yl)amino)-2,3-dihydrobenzo-furan-4-yl) (morpholino) methanone], the pIC50 is greater than 7.00 in experiment [1], greater than 7.00 in experiment [2] and 6.00 to 6.52 in experiment [3].

With `COCCNc1nc(Nc2ccc(C(=O)N3CCOCC3)c3c2OCCO3)nc2[nH]ccc12` [Example 46, (8-((4-((2-methoxyethyl)amino)-7H-pyrrolo[2,3-d]pyrimidin-2-yl)amino)-2,3-dihydrobenzo[b][1,4]dioxin-5-yl)(morpholino)methanone 2,2,2-trifluoroacetate], the results for the pIC50 in experiment [1], in experiment [2] and in experiment [3] were 6.00 to 6.52, greater than 7.00 and 6.00 to 6.52, respectively.

On to `COc1cc(S(C)(=O)=O)ccc1Nc1nc(NCC(C)C)c2cc[nH]c2n1` [Example 12, N^4-isobutyl-N^2-(2-methoxy-4-(methylsulfonyl)phenyl)-7H-pyrrolo[2,3-d]pyrimidine-2,4-diamine 2,2,2-trifluoroacetate], for which the pIC50 was 6.00 to 6.52 in experiment [1], greater than 7.00 in experiment [2] and 6.00 to 6.52 in experiment [3].

Regarding `COc1cc(S(=O)(=O)N2CCC(N3CCOCC3)CC2)ccc1Nc1nc(NCC(C)C)c2cc[nH]c2n1` [Example 11, N^4-isobutyl-N^2-(2-methoxy-4-((4-morpholinopiperidin-1-yl)sulfonyl)phenyl)-7H-pyrrolo[2,3-d]pyrimidine-2,4-diamine], the pIC50 in experiment [1] is 6.00 to 6.52; in experiment [2] it was greater than 7.00; in experiment [3] it was 6.00 to 6.52.

In the case of `COc1cc(P(C)(C)=O)ccc1Nc1nc(NC2CCOCC2)c2c(C(F)(F)F)c[nH]c2n1` [Example 389, (3-methoxy-4-((4-((tetrahydro-2H-pyran-4-yl)amino)-5-(trifluoromethyl)-7H-pyrrolo[2,3-d]pyrimidin-2-yl)amino)phenyl) dimethyl-phosphine oxide], the pIC50 in experiment [1] was greater than 7.00; in experiment [2], greater than 7.00; in experiment [3] it was 6.00 to 6.52.

Take `O=C(c1ccc(Nc2nc(NC3CCOCC3)c3c(C(F)(F)F)c[nH]c3n2)c2c1CCO2)N1CCOCC1` [Example 456, morpholino(7-((4-((tetrahydro-2H-pyran-4-yl)amino)-5-(trifluoromethyl)-7H-pyrrolo[2,3-d]pyrimidin-2-yl)amino)-2,3-dihydrobenzo-furan-4-yl)methanone]: the pIC50 is greater than 7.00 in experiment [1], greater than 7.00 in experiment [2] and 6.00 to 6.52 in experiment [3].

On to `CC[C@@H](C)Nc1nc(Nc2ccc(C(=O)N3CCC(N4CCOCC4)CC3)c3c2OCC3)nc2[nH]cc(C#N)c12` [Example 355, (R)-4-(sec-butylamino)-2-((4-(4-morpho-linopiperidine-1-carbonyl)-2,3-dihydro-benzofuran-7-yl)amino)-7H-pyrrolo[2,3-d]pyrimidine-5-carbonitrile], for which the pIC50 in experiment [1], in experiment [2] and in experiment [3] was greater than 7.00 in each case.

As for `CC(C)CNc1nc(Nc2ccc(C(=O)N3CCOCC3)c3c2OCC3)nc2[nH]cc(C(F)(F)F)c12` [Example 447, (7-((4-(iso-butylamino)-5-(trifluoromethyl)-7H-pyrrolo[2,3-d]pyrimidin-2-yl)amino)-2,3-dihydrobenzo-furan-4-yl) (morpholino) methanone], the pIC50 in experiment [1] was 6.00 to 6.52; in experiment [2], greater than 7.00; in experiment [3], 6.00 to 6.52.

Broadly, the pIC50 is the IC50 on a negative log10 scale, so that one unit is a factor of ten.
